From paper PMC11859423, “Fluorescent Probes to Image the KCa3.1 Channel in Tumor Cells” (Pharmaceutics, 2025)
Several values for one entry are separate records, joined by “and”; a condition that tells them apart may be missing. Identical values can stand only once. Entries after “also recorded” stand apart in the source; their conditions may differ.

Legend:
[1] = logP by HPLC retention time correlation; assay type: physicochemical; conditions: standardized reversed phase HPLC system
Procedure: The logP values were recorded using HPLC analysis. Thus, the retention time of the test compound in a standardized reversed phase HPLC system is correlated with the retention times of compounds with known logP values.
In addition to the logD7.4 values, the logP values of the fluorescent probes were recorded by HPLC, i.e., after calibration of the method, the retention times were correlated with the logP values or the compounds [33]. […] Fluorescein-labeled ligands 21a and 21b are considerably more polar than the corresponding bodipy-labeled senicapoc derivatives.

[2] = biological target: T1, KCa3.1 channel in A549-3R cells (Homo sapiens, UniProt O15554); assay: Staining of fixed A549-3R tumor cells (Protocol 1), fluorescence microscopy; assay type: cell-based; conditions: 10 min, 4 °C
T1 construct: the non-small cell lung cancer cell line A549-3R with a high expression of the KCa3.1 channel was employed; endogenous in cells; host or cells: A549-3R cells
Procedure: For the fixation of the cells, the DMEM medium was removed from the glass bottom dish after incubation for 24 h, and the cells were washed with 1 mL of PBS. Subsequently, 1 mL of 4% paraformaldehyde in PBS solution was added to the glass bottom dish and the mixture was incubated for 30 min at room temperature. Thereafter, the cells were washed five times with 1 mL of PBS and used for the cell staining experiments.
(§1) After fixation of the cells (Section 2.10.2), 300 µL of the 10 µM staining solution was added to the glass bottom dish. The cells were incubated for 10 min at 4 °C in a dark chamber. After incubation, the cells were washed five times with 1 mL of PBS and used subsequently for fluorescence microscopy.
(§2) An Axiovert 200 inverted microscope (Carl Zeiss AG, Jena, Germany) with a ×100 oil immersion objective and a digital camera (SPOT RT SE from Diagnostic Instruments Inc., Livingston, UK) were used. The camera was controlled by MetaVue software (version 6.3r6, Visitron, Germany). Two different filter sets were employed, the FITC filter set (Carl Zeiss Filter Set 10 bandwidth excitation filter 450–490, color splitter 510, bandpass filter 515–565) and the TRITC filter set (Carl Zeiss Filter Set 15, bandpass excitation filter 546/12, dichroic mirror 580, emission filter Long Pass 590).
(§3) Using the free imaging software ImageJ (1.53f51, NIH, USA), squares with an edge length of 50 × 50 pixels, corresponding to an area of 9 µm^2, were randomly placed in a cell and signals with Full Width at Half Maximum (FWHM) of ≤5 pixels (~300 nm) were counted as a KCa3.1 channel. For the evaluation, 7 squares were analyzed.
For the staining experiments, the non-small cell lung cancer cell line A549-3R with a high expression of the KCa3.1 channel was employed. An optimized staining protocol (Protocol 1) described previously was followed to analyze the imaging properties of the fluorescent probes. In brief, the 10 µM solution of the senicapoc–dye conjugate in PBS was added to adherent A549-3R cells in a glass bottom dish and the set-up was incubated for 10 min at 4 °C in a dark chamber. After careful washing, the cells were analyzed with a fluorescence microscope.
The images were analyzed with respect to size and density of the fluorescent dots. For this purpose, a square with a size of 50 × 50 pixels was randomly placed on the cell images using ImageJ. The intensities of the signals within the square were analyzed to calculate the Full Width at Half Maximum (FWHM) for each selected dot, which represents a measure for the signal size. For the accurate representation of a single KCa3.1 channel, the FWHM should be in the range of five pixels. Signals with a FWHM of ≤5 pixels within the square were regarded as labeled KCa3.1 channels and the number of identified channels was used to determine the density of the ion channels on the cells (Figure S8, Supplementary Materials).

[3] = biological target: T1, KCa3.1 channel in A549-3R cells; assay: Staining of living A549-3R cells (Protocol 2); assay type: cell-based
Procedure: The cells were used without fixation. After incubation of the cells for 24 h (Section 2.10.1), the medium was removed, and the cells were washed three times with 1 mL of PBS. […]
as §2, §3
In the next experiment, living A549-3R cells were stained with 10b.

HEK293 cells = assay: Negative control staining of HEK293 cells, which do not express KCa3.1 channels; assay type: cell-based; conditions: HEK293 cells do not express KCa3.1 channels
Procedure: as §1
In a second control experiment, azide precursor 7b without the senicapoc warhead was incubated with fixed A549-3R tumor cells.

[4] = biological target: T1, KCa3.1 channel in A549-3R cells; assay: Whole-cell patch clamp on A549-3R cells after channel opening with 1-EBIO; assay type: cell-based
Procedure: Bath solution: 140 mM NaCl, 5 mM KCl, 10 mM HEPES, 1 mM MgCl2 and 1 mM CaCl2 in an aqueous solution; pH = 7.4 with NaOH.
Pipette solution: 140 mM KCl, 10 mM HEPES, 1.3 mM EGTA, 1 mM MgCl2 and 1.217 mM CaCl2 in an aqueous solution; pH = 7.4 with NaOH; free Ca^2+ concentration of 1 µM.
1-EBIO solution: 100 mM stock solution of 1-ethylbenzimidazolone (1-EBIO) in DMSO was diluted with the bath solution to 50 µM.
Test solution: A 10 mM stock solution of imaging compound 10b in DMSO was diluted with the bath solution to 1 µM.
Senicapoc solution: 10 mM stock solution of senicapoc (3) in DMSO was diluted with bath solution to 1 µM.
Whole-cell patch clamp experiments were conducted at room temperature using borosilicate glass pipettes (GC150TF-10, Harvard Ltd., Boston, MA, USA) connected to an EPC-10 amplifier (HEKA Electronics, Lambrecht, Germany). […] Current density was calculated by dividing the current amplitude determined at the end of the depolarization voltage ramp to +60 mV by the membrane capacitance obtained from the slow capacitance compensation. The calculated free Ca^2+ concentration of the pipette solution was 1 µmol/L to obtain full activation of the KCa channels during the patch clamp experiments. […] A multi-barreled application pipette with a tip diameter of ~100 µm was used for test solution applications close to the recorded cell. […]

[5] = living A549-3R cells, Protocol 2

chromatographic logP [1]: 5.8 | FWHM of fluorescent dots ([2]; fixed A549-3R cells, 10 µM): 5.27 ± 0.22 pixels and 5.27 pixels | staining pattern of living A549-3R cells ([3]; Protocol 2, 10 µM, 10 min, 4 °C): distinct punctate staining pattern | FWHM of fluorescent dots [3, 5]: 4.89 ± 0.50 pixels | density of labeled KCa3.1 channels [3, 5]: 1.11 ± 0.11 KCa3.1 channels per µm^2
SMILES: CCC1=C(C)C2=C(c3ccc(OCCOCCn4cc(COc5ccc(C(C(N)=O)(c6ccccc6)c6ccc(F)cc6)cc5)nn4)cc3)c3c(C)c(CC)c(C)n3[B-](F)(OC)[N+]2=C1C (stereo not shown) [10b, 2-{4-[(1-{2-[4-(2,6-Diethyl-4-fluoro-4-methoxy-1,3,5,7-tetramethyl-4-bora-3a,4a-diaza-s-indacen-8-yl)phenoxy]ethoxyethyl}-1,2,3-triazol-4-yl)methoxy]phenyl}-2-(4-flluorophenyl)-2-phenylacetamide]
staining pattern of fixed A549-3R tumor cells ([2]; 10 µM in PBS, Protocol 1): expected punctate staining pattern of the membrane | density of labeled KCa3.1 channels ([2]; fixed A549-3R cells, 10 µM): 1.22 ± 0.26 KCa3.1 channels per µm^2 and 1.22 KCa3.1 channels per µm^2 | staining pattern of HEK293 cells (negative control) (HEK293 cells): a punctate staining pattern was not observed; also recorded: could not be observed | inhibitory activity compared with senicapoc ([4]; 1 µM each, channel opened with 1-EBIO): only slightly lower than the inhibitory activity of senicapoc | inhibition of the KCa3.1 ion channel current ([4]; 1 µM, channel opened with 50 µM 1-EBIO, whole A549-3R cells): inhibited the ion channel considerably; also recorded: inhibited the ion current
